Laboratory results taken from patent US7037901B1, “Radiosensitization by indolocarbazole derivatives” (priority 2001, dated 2006).

How the values were obtained:
purified human TOP1 = biological target: T1, purified human TOP1 (Homo sapiens, UniProt P11387); assay: In vitro drug-stimulated TOP1 cleavage assay (pHOT1 plasmid nicking); type: biochemical; parameters: key to TOP1-mediated DNA cleavage: +++: high activity; ++: modest activity; +: low activity; conditions: for TOP1-mediated DNA cleavage: in vitro, based on FIG. 4B and 4C; for Potency in inducing TOP1-mediated DNA cleavage (nicking of pHOT1): purified human TOP1, FIG. 4, 4C
T1 construct: purchased TopoGEN, Inc. (Columbus, Ohio)
T1 sequence (P11387 1-765): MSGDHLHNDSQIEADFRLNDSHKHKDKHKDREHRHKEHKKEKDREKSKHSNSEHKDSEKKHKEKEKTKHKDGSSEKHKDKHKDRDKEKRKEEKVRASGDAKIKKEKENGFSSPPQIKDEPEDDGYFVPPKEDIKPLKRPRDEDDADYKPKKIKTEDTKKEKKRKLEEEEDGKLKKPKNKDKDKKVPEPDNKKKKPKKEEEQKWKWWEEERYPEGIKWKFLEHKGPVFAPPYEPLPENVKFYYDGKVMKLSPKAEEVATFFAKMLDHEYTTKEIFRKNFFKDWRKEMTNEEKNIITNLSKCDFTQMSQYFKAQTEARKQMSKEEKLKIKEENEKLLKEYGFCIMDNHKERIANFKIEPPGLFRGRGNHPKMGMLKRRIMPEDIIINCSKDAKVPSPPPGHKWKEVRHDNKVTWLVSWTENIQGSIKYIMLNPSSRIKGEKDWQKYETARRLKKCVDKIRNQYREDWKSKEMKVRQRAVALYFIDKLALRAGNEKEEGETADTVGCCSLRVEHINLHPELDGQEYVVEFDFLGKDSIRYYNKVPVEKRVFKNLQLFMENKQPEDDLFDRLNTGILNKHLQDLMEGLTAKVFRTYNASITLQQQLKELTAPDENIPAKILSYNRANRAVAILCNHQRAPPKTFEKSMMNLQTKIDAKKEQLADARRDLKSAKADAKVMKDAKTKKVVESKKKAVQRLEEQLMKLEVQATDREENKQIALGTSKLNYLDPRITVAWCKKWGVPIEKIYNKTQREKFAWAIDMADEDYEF
Procedure: In vitro drug-stimulated TOP1 cleavage assay. Drug-stimulated DNA cleavage assay using purified human TOP1 was performed according to the protocol provided by TopoGEN Inc. (Columbus, Ohio) with modifications.
Briefly, supercoiled pHOT1 plasmid DNA (0.2 μg) was incubated with 1 unit of human TOP1 in cleavage buffer (50 mM Tris, pH 7.8, 50 mM KCl, 10 mM MgCl2, 1 mM dithiothreitol, 1 mM EDTA) in the presence of varying concentrations of the drug under study. Following a 30-min incubation at 37° C., the reactions were terminated by adding SDS to 1.0% and proteinase K to 200 μg/ml. The proteinase K treatment continued at 37° C. for 1 h. The sample was then mixed with loading dye (containing sucrose and bromphenol blue) and separated in 1% agarose gel in 0.08 M Tris-phosphate, 0.008 M EDTA, pH 8.0 buffer at room temperature for 16 h.
The gel was initially stained with ethidium bromide ([…]), washed and photographed under UV light. In order to separate the “nicked” from the “relaxed” DNA population, the gel was further run for 4 h in the presence of ethidium bromide before being photographed again under UV light. The photograph was scanned and the intensity of the nicked DNA of each lane was measured using the ImageJ program obtained from the National Institutes of Health (web site: rsb.info.nih.gov/ij/). The intensity of the nicked band of each lane was plotted after the background intensity (pHOT1+TOP1 lane) was subtracted.

[1] = biological target: T2, covalent topoisomerase-DNA cross-links in CHO cells (Cricetulus griseus, UniProt Q07050, S505G); assay: In vivo K+-SDS co-precipitation assay for protein-DNA cross-links; type: cell-based, Chinese hamster; parameters: key to Protein-DNA cross-links: +++: high activity; ++: modest activity; +: low activity; conditions: 30-min drug treatment, based on FIG. 5
T2 construct: endogenous in cells; host or cells: Chinese hamster ovary CHO cells
T2 sequence (Q07050 2-767 S505G): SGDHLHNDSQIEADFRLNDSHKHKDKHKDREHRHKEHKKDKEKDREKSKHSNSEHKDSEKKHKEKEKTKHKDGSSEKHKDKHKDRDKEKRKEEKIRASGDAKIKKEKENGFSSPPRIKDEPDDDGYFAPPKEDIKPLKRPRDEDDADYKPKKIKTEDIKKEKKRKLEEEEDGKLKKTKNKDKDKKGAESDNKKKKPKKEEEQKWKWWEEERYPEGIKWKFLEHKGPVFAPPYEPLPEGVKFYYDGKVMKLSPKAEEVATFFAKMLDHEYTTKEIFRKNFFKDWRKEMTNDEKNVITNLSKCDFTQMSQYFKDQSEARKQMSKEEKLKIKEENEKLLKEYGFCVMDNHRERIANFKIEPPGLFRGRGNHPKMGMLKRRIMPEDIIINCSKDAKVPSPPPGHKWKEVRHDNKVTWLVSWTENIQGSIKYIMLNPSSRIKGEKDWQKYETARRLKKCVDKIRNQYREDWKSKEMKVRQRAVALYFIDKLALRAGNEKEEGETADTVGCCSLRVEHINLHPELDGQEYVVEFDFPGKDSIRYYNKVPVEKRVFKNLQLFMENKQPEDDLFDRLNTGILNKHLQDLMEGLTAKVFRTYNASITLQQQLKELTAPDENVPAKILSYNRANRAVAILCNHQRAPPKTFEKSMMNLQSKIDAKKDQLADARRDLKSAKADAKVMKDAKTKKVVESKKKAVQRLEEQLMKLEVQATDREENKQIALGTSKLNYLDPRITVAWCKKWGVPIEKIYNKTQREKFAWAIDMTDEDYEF
Description: In vivo K^+-SDS co-precipitation assay for protein-DNA cross-links. The K^+-SDS co-precipitation assay as described previously (Chen, Y. N., et al., J. Biol. Chem., 265:10073–10080 (1990)) was used to quantify the formation of covalent topoisomerase-DNA cross-links in drug-treated cells.
Briefly, the DNA in logarithmic growing Chinese hamster CHO cells was overnight-labeled in medium containing 1 μCi/ml of [mehtyl-^3H] thymidine. These cells were then trypsinized and diluted in fresh medium before aliquoted into a 24-well plate. After overnight incubation, the labeled cells were treated with various concentrations of drugs for 30 min, washed with phosphate-buffered saline once, and lysed by adding 1 ml of prewarmed lysis solution (1.25% SDS, 5 mM EDTA, 0.4 mg/ml salmon sperm DNA, pH 8.0, 65° C.).
Following shearing chromosomal DNA by passing the lysate through a 19-gauge needle, the sample was transferred to a tube containing 0.25 ml of 325 mM KCl. The sample was vortexed vigorously for 10 s, cooled on ice for 10 min and centrifuged at 3000 rpm for 10 min at 4° C.
The pellet was then resuspended in 1 ml of a wash solution (100 mM KCl, 1 mM EDTA, 0.1 mg/ml salmon sperm DNA, 10 mM Tris-HCl, pH 8.0) and placed at 65° C. for 10 min with occasional mixing. The sample was again cooled on ice for 10 min and centrifuged at 3000 rpm for 10 min at 4° C. After the pellet from each sample was washed again, the pellet was finally resuspended in 0.2 ml of 65° C. water and added to 5 ml of scintillation fluid to determine radioactive counts.
The background precipitable counts were obtained by treating the lysate with proteinase K (400 μg/ml) at 65° C. for 2 h. Data are arithmetic means (±SD) of three determinations, and the background counts have been subtracted.

[2] = tested on: human MCF-7, Chinese hamster CHO and DC3F cells; assay: Cytotoxicity (LD50) by clonogenic survival assays in three cell lines; type: cell-based; conditions: 1 h drug treatment; MCF-7, CHO and DC3F cells
Procedure: (§1) Clonogenic Survival Assay. […] 18–24 h prior to experimental studies.
(§2) Colonies consisting of >50 cells were counted.
We investigated the relationship between the TOP1-mediated DNA damage and the cytotoxic and radiosensitizing effects induced by the six INDO derivatives. The cytotoxicity of various INDO derivatives was determined by exposing logarithmically growing human MCF-7, Chinese hamster CHO and DC3F cells to the individual drug for 1 hr, followed by clonogenic survival assays.

[3] = tested on: human MCF-7 and Chinese hamster DC3F cells; assay: RS activity summary (MCF-7 and DC3F cells); type: cell-based; parameters: key: +: possess RS activity; −: possess no RS activity; conditions: MCF-7 (FIG. 2) and DC3F cells (Table 4)
Procedure: as §1, §2
Irradiation of Cells. Drug-treated and control cells in medium were irradiated using a cobalt-60 source (Eldorado 8; Theratronics, Canada) at a dose rate of 105 cGy/min.
Analysis of Survival Curves. Survival curves were corrected for cytotoxicity induced by drug alone treatment. Sensitization enhancement ratios (SERs) and standard deviations for survival curves were determined at 10% cell survival. Each SER was calculated by dividing the radiation dose to induce 10% cell survival in the absence of radiosensitizer with the radiation dose to induce 10% cell survival in the presence of radiosensitizer.

Structure (SMILES) | TOP1-mediated DNA cleavage (purified human TOP1) | Potency in inducing TOP1-mediated DNA cleavage (nicking of pHOT1) (purified human TOP1) | Protein-DNA cross-links [1] | Cytotoxicity (based on LD50) [2] | RS (radiosensitization activity) [3]
CO[C@H]1[C@H](O)[C@@H](O)[C@H](n2c3c(Cl)cccc3c3c4c(c5c6cccc(Cl)c6[nH]c5c32)C(=O)NC4=O)O[C@@H]1CO [F1, rebeccamycin] | + | less potent group | ++ | ++ (modest activity, LD50 >4 μg/ml but ≦10 μg/ml) | +
COC1C(CO)OC(n2c3ccccc3c3c4c(c5c6ccccc6[nH]c5c32)C(=O)OC4=O)C(O)C1O (stereo not drawn) [F5] | + | less potent group | + | + (low activity, LD50 >10 μg/ml) | +
COC1C(CO)OC(n2c3ccccc3c3c4c(c5c6ccccc6[nH]c5c32)C(=O)N(O)C4=O)C(O)C1O (stereo not drawn) [F7] | +++ | equivalent activity as camptothecin | ++ | ++ (modest activity, LD50 >4 μg/ml but ≦10 μg/ml) | +
COC1C(CO)OC(n2c3c(Cl)cccc3c3c4c(c5c6cccc(Cl)c6[nH]c5c32)C(=O)N(C)C4=O)C(O)C1O (stereo not drawn) [F43] | + | less potent group | + | + (low activity, LD50 >10 μg/ml) | −
COC1C(CO)OC(n2c3ccccc3c3c4c(c5c6ccccc6[nH]c5c32)C(=O)N(C)C4=O)C(O)C1O (stereo not drawn) [F44] | ++ | less potent group | ++ | +++ (high activity, LD50 ≦4 μg/ml) | −
COC1C(CO)OC(n2c3ccccc3c3c4c(c5c6ccccc6[nH]c5c32)C(=O)NC4=O)C(O)C1O (stereo not drawn) [F71] | +++ | equivalent activity as camptothecin | +++ | +++ (high activity, LD50 ≦4 μg/ml) | −
